Literature values in US12329853B2, “Compositions and methods for treating ocular diseases” (OCULAR THERAPEUTIX, INC., priority 2020, dated 2025).

Columns and labels:
FP prostanoid receptor = FP prostanoid receptor (Homo sapiens, UniProt P43088)
[1] = organic solvents typically employed for fabrication of microspheres using solvent evaporation

Sequence of FP prostanoid receptor (P43088 whole entry): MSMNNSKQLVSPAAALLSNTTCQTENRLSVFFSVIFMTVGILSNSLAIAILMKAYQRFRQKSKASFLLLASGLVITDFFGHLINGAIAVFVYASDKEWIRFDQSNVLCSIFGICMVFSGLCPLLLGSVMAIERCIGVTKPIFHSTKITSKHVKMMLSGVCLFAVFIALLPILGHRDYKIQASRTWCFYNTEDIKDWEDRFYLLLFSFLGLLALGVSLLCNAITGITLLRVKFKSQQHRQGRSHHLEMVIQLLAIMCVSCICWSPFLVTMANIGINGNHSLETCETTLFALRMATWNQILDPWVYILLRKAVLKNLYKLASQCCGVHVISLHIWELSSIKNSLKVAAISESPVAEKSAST

| Solubility in organic solvents [1] | SMILES | Selectivity for the FP prostanoid receptor compared to latanoprost (FP prostanoid receptor) | Potency compared to latanoprost (FP prostanoid receptor; FP prostanoid receptor) |
| --- | --- | --- | --- |
|  | O=C(O)CCC/C=C\C[C@@H]1[C@@H](/C=C/[C@@H](O)COc2cccc(C(F)(F)F)c2)[C@H](O)C[C@@H]1O [free acid of travoprost] | greater selectivity | higher potency |
| readily soluble | CC(C)OC(=O)CCC/C=C\C[C@@H]1[C@@H](CC[C@@H](O)CCc2ccccc2)[C@H](O)C[C@@H]1O [Latanoprost] |  |  |
